Test results published in ChEMBL document CHEMBL1127537, “Synthesis and characterization of [125I]-N-(N-benzylpiperidin-4-yl)-4- iodobenzamide, a new sigma receptor radiopharmaceutical: high-affinity binding to MCF-7 breast tumor cells” (J Med Chem, 1994).

Key:
Sigma 2 receptor = assay: Binding affinity against sigma-2 receptor in rat liver using radioligand [3H]DTG in the presence of dextrallorphan.
[1] = target: Muscarinic acetylcholine receptor; assay: Binding affinity against muscarinic receptor in rat brain membranes using radioligand [H}QNB.; format: cell membranes
Glutamate NMDA receptor = assay: Binding affinity against phencyclidine receptor in rat brain membranes using radioligand [3H]TCP.; format: cell membranes
D(2) dopamine receptor = D(2) dopamine receptor (Rattus norvegicus, UniProt P61169); assay: Binding affinity against D-2 dopamine receptor in rat brain membranes using [3H](-)-sulpiride as radioligand.; format: cell membranes
Sequence of D(2) dopamine receptor (P61169 whole entry): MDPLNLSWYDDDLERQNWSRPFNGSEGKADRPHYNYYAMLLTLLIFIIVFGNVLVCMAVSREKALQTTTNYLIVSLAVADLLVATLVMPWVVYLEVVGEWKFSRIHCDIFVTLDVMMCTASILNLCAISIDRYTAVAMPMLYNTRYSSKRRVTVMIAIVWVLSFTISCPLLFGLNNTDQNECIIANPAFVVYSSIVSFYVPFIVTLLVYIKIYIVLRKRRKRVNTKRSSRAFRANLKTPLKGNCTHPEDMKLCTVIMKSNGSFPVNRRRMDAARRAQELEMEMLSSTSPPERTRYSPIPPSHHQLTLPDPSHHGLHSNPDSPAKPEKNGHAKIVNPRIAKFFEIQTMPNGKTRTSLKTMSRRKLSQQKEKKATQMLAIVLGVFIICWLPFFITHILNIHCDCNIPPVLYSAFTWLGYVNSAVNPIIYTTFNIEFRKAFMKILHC

Ki (Sigma 2 receptor) [nM] | Ki [1] [nM] | Ki (Glutamate NMDA receptor) [nM] | Ki (D(2) dopamine receptor) [nM] | SMILES
29.6 | > 100000 | > 100000 | 63.4 | O=C(NC1CCN(Cc2ccccc2)CC1)c1ccccc1I
25.2 | > 100000 | > 100000 | 382 | O=C(NC1CCN(Cc2ccccc2)CC1)c1ccc(I)cc1
84.6 | > 100000 | > 100000 | 24.8 | O=C(NC1CCN(Cc2ccccc2)CC1)c1cccc(I)c1
